Source: patent US8685992B2, “Histone deacetylase inhibitors based simultaneously on trisubstituted 1H-pyrroles and aromatic and heteroaromatic spacers” (Universidad del País Vasco, priority 2009, dated 2014)

Legend:
Human HDAC1 = Human HDAC1 (Homo sapiens (Human), UniProt Q13547); assay: HDAC1 fluorogenic peptide deacetylation assay; type: biochemical; settings: human HDAC1, 50 μM substrate, 30° C., 2 h; read-out: IC50 (nM) of enzyme activity HDAC1
Human HDAC3/NcoR2 = Human HDAC3/NcoR2 (Homo sapiens (Human), UniProt O15379); assay: HDAC3 fluorogenic peptide deacetylation assay; type: biochemical; settings: human HDAC3/NcoR2, 50 μM substrate, 30° C., 2 h; read-out: IC50 (nM) of enzyme activity HDAC3
Sequence of Human HDAC3/NcoR2 (O15379 whole entry): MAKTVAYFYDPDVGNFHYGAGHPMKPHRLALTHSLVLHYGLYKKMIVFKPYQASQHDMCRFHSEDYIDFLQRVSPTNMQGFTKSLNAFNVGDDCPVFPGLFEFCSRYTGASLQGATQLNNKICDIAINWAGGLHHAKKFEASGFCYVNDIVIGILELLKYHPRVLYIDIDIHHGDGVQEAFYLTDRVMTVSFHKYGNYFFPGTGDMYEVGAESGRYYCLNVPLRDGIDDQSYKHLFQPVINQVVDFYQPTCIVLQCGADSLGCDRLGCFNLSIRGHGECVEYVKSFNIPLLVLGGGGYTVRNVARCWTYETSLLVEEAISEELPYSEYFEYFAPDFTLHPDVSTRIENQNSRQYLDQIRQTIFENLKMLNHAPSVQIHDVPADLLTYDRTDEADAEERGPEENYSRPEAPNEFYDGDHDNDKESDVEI
Sequence of Human HDAC3/NcoR2 (Q9Y618 395-489 partner): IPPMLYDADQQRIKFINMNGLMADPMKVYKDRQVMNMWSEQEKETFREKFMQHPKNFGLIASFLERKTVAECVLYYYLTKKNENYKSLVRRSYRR

Human HDAC8 = Human HDAC8 (Homo sapiens (Human), UniProt Q9BY41); assay: HDAC8 fluorogenic peptide deacetylation assay; type: biochemical; settings: human HDAC8, 50 μM substrate, 30° C., 2 h; read-out: IC50 (nM) of enzyme activity HDAC8
Sequence of Human HDAC8 (Q9BY41 whole entry): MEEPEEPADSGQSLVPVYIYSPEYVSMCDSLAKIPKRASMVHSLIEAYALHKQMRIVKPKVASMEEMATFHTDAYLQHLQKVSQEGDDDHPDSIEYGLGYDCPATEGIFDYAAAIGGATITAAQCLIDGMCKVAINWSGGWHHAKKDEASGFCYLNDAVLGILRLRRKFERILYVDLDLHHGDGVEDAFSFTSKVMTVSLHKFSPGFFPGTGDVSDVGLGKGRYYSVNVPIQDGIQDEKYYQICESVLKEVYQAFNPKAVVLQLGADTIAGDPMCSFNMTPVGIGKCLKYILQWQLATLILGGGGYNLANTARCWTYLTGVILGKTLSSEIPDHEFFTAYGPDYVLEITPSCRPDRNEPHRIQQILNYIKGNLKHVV

BT474 = assay: Cancer cell growth inhibition, BT474; type: cell-based; settings: Homo sapiens, BT-474; BT474, Breast Cancer, 72 h treatment
Method: (§1) Cell culture-based assays were used to evaluate the ability of compounds of the invention to inhibit cancer cell growth inhibition.
(§2) Cells were obtained from the American Type Culture Collection (ATCC). Cells were cultured at 37° C. with 5% CO2 in the appropriate growth medium (see table below), and harvested respectively during the logarithmic growth period and counted with hemocytometer. The cell viability was over 98% by trypan blue exclusion. Cell concentrations were adjusted between 5×10^4 and 2×10^5 cells/ml with respective medium.
(§3) Stock solutions of test compounds and positive drugs Doxorubicin (Zhejiang, Haizheng, China), Paclitaxel (Beijing, Xiehe, China), Vincristin (Shenzhen Wanle, China), 5-FU (Tianjin jinyaoanjisuan, China), Irinotecan (Jiangsu Hengrui, China) and Cisplatin Nanjing zhiyao, China) were prepared in dimethyl sulphoxide (DMSO) or PBS at 20 mM.
(§4) All treatments were performed in triplicate. 10 μl drug solution was added to each well and incubated for 72 hours. At the end of the incubation, 20 μl of the freshly prepared MTS/PMS mixture solution was added to each well and incubated for 4 hours at 37° C. in a humidified, 5% CO2 atmosphere. Absorbance was read at 490 nm using SpectraMAX Plus microplate spectrophotometer. […] In order to calculate IC50, a dose-responsive curve was fitted using nonlinear regression model with a sigmoidal dose response.

MCF-7 = assay: Cancer cell growth inhibition, MCF-7; type: cell-based, human; settings: Homo sapiens, MCF7; MCF-7, Breast Cancer, 72 h treatment
Method: as §1, §2, §3, §4

MDA-MB-231 = assay: Cancer cell growth inhibition, MDA-MB-231; type: cell-based, human; settings: Homo sapiens; MDA-MB-231, Breast Cancer, 72 h treatment
Method: as §1, §2, §3, §4

LNCaP = assay: Cancer cell growth inhibition, LNCaP; type: cell-based, human; settings: Homo sapiens, Prostate Cancer, 72 h treatment
Method: as §1, §2, §3, §4

Colo205 = assay: Cancer cell growth inhibition, Colo205; type: cell-based; settings: Homo sapiens, COLO 205; Colo205, Colorectal Cancer, 72 h treatment
Method: as §1, §2, §3, §4

DLD-1 = assay: Cancer cell growth inhibition, DLD-1; type: cell-based, human; settings: Homo sapiens; DLD-1, Colorectal Cancer, 72 h treatment
Method: as §1, §2, §3, §4

HCT-116 = assay: Cancer cell growth inhibition, HCT-116; type: cell-based, human; settings: Homo sapiens; HCT-116, Colorectal Cancer, 72 h treatment
Method: as §1, §2, §3, §4

HT-29 = assay: Cancer cell growth inhibition, HT-29; type: cell-based, human; settings: Homo sapiens; HT-29, Colorectal Cancer, 72 h treatment
Method: as §1, §2, §3, §4

LoVo = assay: Cancer cell growth inhibition, LoVo; type: cell-based, human; settings: Homo sapiens, Colorectal Cancer, 72 h treatment
Method: as §1, §2, §3, §4

NCI-H460 = assay: Cancer cell growth inhibition, NCI-H460; type: cell-based, human; settings: Homo sapiens; NCI-H460, Lung Cancer, 72 h treatment
Method: as §1, §2, §3, §4

SK-MES-1 = assay: Cancer cell growth inhibition, SK-MES-1; type: cell-based, human; settings: Homo sapiens; SK-MES-1, Lung Cancer, 72 h treatment
Method: as §1, §2, §3, §4

U87MG = assay: Cancer cell growth inhibition, U87MG; type: cell-based, human; settings: Homo sapiens, U-87 MG, Glioblastoma, 72 h treatment
Method: as §1, §2, §3, §4

HT-1080 = assay: Cancer cell growth inhibition, HT-1080; type: cell-based; settings: Homo sapiens; HT-1080, Fibrosarcoma, 72 h treatment
Method: as §1, §2, §3, §4

MIAPACA-2 = assay: Cancer cell growth inhibition, MIAPACA-2; type: cell-based, human; settings: Homo sapiens, MIA PaCa-2; MIAPACA-2, Pancreatic Cancer, 72 h treatment
Method: as §1, §2, §3, §4

Bx-PC-3 = assay: Cancer cell growth inhibition, Bx-PC-3; type: cell-based, human; settings: Homo sapiens, BXPC-3; Bx-PC-3, Pancreatic Cancer, 72 h treatment
Method: as §1, §2, §3, §4

786-O = assay: Cancer cell growth inhibition, 786-O; type: cell-based, human; settings: Homo sapiens, 786-0, Kindney Cancer, 72 h treatment
Method: as §1, §2, §3, §4

Hep3B = assay: Cancer cell growth inhibition, Hep3B; type: cell-based, human; settings: Homo sapiens, Liver Cancer, 72 h treatment
Method: as §1, §2, §3, §4

SK-HEP-1 = assay: Cancer cell growth inhibition, SK-HEP-1; type: cell-based; settings: Homo sapiens, SK-HEP1; SK-HEP-1, Liver Cancer, 72 h treatment
Method: as §1, §2, §3, §4

143b = assay: Cancer cell growth inhibition, 143b; type: cell-based; settings: Homo sapiens, Osteosarcoma, 72 h treatment
Method: as §1, §2, §3, §4

SK-MEL-5 = assay: Cancer cell growth inhibition, SK-MEL-5; type: cell-based, human; settings: Homo sapiens; SK-MEL-5, Melanoma, 72 h treatment
Method: as §1, §2, §3, §4

SK-OV-3 = assay: Cancer cell growth inhibition, SK-OV-3; type: cell-based, human; settings: Homo sapiens; SK-OV-3, Ovarian Cancer, 72 h treatment
Method: as §1, §2, §3, §4

OVCAR3 = assay: Cancer cell growth inhibition, OVCAR3; type: cell-based, human; settings: Homo sapiens, OVCAR-3; OVCAR3, Ovarian Cancer, 72 h treatment
Method: as §1, §2, §3, §4

K562 = assay: Cancer cell growth inhibition, K562; type: cell-based, human; settings: Homo sapiens; K562, CML, 72 h treatment
Method: as §1
as §2, with “The cell viability was over 98% by trypan blue exclusion.” left out
as §3, §4

KB = assay: Cancer cell growth inhibition, KB; type: cell-based, human; settings: Homo sapiens, Oral Cancer, 72 h treatment
Method: as §1, §2, §3, §4

Human HDAC4 = Human HDAC4 (Homo sapiens (Human), UniProt P56524); assay: HDAC4 fluorogenic peptide deacetylation assay; type: biochemical; settings: human HDAC4, 50 μM substrate, 30° C., 2 h; read-out: IC50 (nM) of enzyme activity HDAC4
Sequence of Human HDAC4 (P56524 627-1084 limits assumed): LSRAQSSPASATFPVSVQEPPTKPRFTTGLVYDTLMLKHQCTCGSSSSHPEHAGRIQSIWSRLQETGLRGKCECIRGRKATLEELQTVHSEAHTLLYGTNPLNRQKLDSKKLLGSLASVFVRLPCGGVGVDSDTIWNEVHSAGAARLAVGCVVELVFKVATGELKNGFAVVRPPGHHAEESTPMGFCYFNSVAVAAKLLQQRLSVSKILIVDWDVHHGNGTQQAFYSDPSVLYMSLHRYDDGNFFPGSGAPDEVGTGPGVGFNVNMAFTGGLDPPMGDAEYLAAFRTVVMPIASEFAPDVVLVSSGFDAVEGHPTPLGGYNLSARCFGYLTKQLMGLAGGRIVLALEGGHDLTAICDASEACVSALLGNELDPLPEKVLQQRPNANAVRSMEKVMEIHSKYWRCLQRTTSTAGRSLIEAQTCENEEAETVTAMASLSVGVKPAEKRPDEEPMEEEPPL

Sequence of Human HDAC1 (Q13547 whole entry): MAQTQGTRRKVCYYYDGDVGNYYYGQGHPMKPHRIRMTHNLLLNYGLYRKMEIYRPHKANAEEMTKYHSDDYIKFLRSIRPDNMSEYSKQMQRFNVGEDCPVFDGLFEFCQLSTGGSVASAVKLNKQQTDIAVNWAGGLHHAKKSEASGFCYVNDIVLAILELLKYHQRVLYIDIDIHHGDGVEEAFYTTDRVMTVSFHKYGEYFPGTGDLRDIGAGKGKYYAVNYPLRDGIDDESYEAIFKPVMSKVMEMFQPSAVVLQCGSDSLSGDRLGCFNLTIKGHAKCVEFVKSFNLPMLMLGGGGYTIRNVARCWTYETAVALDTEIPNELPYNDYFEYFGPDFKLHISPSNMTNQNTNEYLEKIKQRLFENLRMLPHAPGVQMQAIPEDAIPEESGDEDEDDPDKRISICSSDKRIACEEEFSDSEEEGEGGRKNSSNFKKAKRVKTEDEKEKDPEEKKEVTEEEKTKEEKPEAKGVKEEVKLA

Structure (SMILES)	IC50 (Human HDAC1)	IC50 (Human HDAC3/NcoR2)	IC50 (Human HDAC8)	IC50 (BT474)	IC50 (MCF-7)	IC50 (MDA-MB-231)	IC50 (LNCaP)	IC50 (Colo205)	IC50 (DLD-1)	IC50 (HCT-116)	IC50 (HT-29)	IC50 (LoVo)	IC50 (NCI-H460)	IC50 (SK-MES-1)	IC50 (U87MG)	IC50 (HT-1080)	IC50 (MIAPACA-2)	IC50 (Bx-PC-3)	IC50 (786-O)	IC50 (Hep3B)	further results
O=C(NO)c1ccc(CNC(=O)c2[nH]c(-c3ccoc3)cc2-c2ccc(O)cc2)cc1 [Example 9, 5-(3-furyl)-N-{4-[(hydroxyamino)carbonyl]benzyl}-3-(4-hydroxyphenyl)-1H-pyrrole-2-carboxamide]	378 nM	298 nM	227 nM	3630 nM	4.49 µM	4.25 µM	9.91 µM	4910 nM	6.87 µM	1990 nM	10.7 µM	1910 nM	10.5 µM	7.76 µM	10.8 µM	1840 nM	2810 nM	7.73 µM	13.4 µM	3180 nM	IC50 (SK-HEP-1): 4470 nM; IC50 (143b): 12900 nM; IC50 (SK-MEL-5): 3340 nM; IC50 (SK-OV-3): 4170 nM; IC50 (OVCAR3): 9.99 µM; IC50 (K562): 1040 nM; IC50 (KB): 2960 nM
O=C(NO)c1ccc(CNC(=O)c2[nH]c(-c3ccc(O)cc3)cc2-c2ccsc2)cc1 [Example 14, N-{4-[(hydroxyamino)carbonyl]benzyl}-5-(4-hydroxyphenyl)-3-(3-thienyl)-1H-pyrrole-2-carboxamide]	84.2 nM	124 nM	64.1 nM	1630 nM	10.1 µM	4.07 µM	4.11 µM	1560 nM	24.5 µM	80.4 nM	5.78 µM	498 nM	26.7 µM	18.5 µM	9.35 µM	1530 nM	428 nM	6.83 µM	8.66 µM	2700 nM	IC50 (Human HDAC4): 956 nM; IC50 (SK-HEP-1): 1750 nM; IC50 (143b): 2620 nM; IC50 (SK-MEL-5): 851 nM; IC50 (SK-OV-3): 1630 nM; IC50 (OVCAR3): 25.2 µM; IC50 (K562): 1300 nM; IC50 (KB): 702 nM
COc1ccc(-c2cc(-c3ccoc3)c(C(=O)NCc3ccc(C(=O)NO)cc3)[nH]2)cc1 [Example 27, 3-(3-furyl)-N-{4-[(hydroxyamino)carbonyl]benzyl}-5-(4-methoxyphenyl)-1H-pyrrole-2-carboxamide]	71 nM	75 nM	148 nM	119 nM	0.377 µM	1.49 µM	0.366 µM	248 nM	0.592 µM	416 nM	1.01 µM	430 nM	1.68 µM	0.588 µM	1.39 µM	160 nM	881 nM	0.775 µM	1.91 µM	614 nM	IC50 (Human HDAC4): 1080 nM; IC50 (SK-HEP-1): 1100 nM; IC50 (143b): 2570 nM; IC50 (SK-MEL-5): 256 nM; IC50 (SK-OV-3): 1670 nM; IC50 (OVCAR3): 0.904 µM; IC50 (KB): 315 nM
